Reference: US11406687B2, “Activators of CXCR3 for the treatment of angiopathies of the eye” (University of Pittsburgh—Of the Commonwealth System of …, priority 2011, dated 2022)

B1: PF4: 70-amino acid CXC chemokine released from alpha-granules of activated platelets; human PF4 sequence SEQ ID NO: 3 (protein, listed as Homo sapiens)
chain: EAEEDGDLQCLCVKTTSQVRPRHITSLEVIKAGPHCPTAQLIATLKNGRKICLDLQAPLYKKIIKKLLES

Assays:
[1] = test system: rabbits with experimental glaucoma; experiment: Restenosis following glaucoma treatment in rabbits with experimental glaucoma (Example 1); type: in vivo, rabbit; conditions: rabbits treated for glaucoma by drilling an anastomy; peptides injected into the aqueous humor
Description: To test the effect of the 21 amino acid IP-10 peptide (SEQ ID NO: 2) on restenosis following glaucoma treatment, an experiment is conducted in rabbits with experimental glaucoma.
Rabbits are treated with IP-10 peptide (SEQ ID NO: 2), PF4, or a scrambled control peptide. Rabbits are treated for glaucoma by drilling an anastomy. The peptides are then injected into the aqueous humor.
Changes in pressure are evaluated before and after treatment with the peptides.

[2] = test system: rabbits with experimental WMD; experiment: Wet macular degeneration in rabbits with experimental WMD (Example 2); type: in vivo, rabbit; conditions: injection into the vitreous humor, repeated as necessary
Description: To test the effect of the 21 amino acid IP-10 peptide (SEQ ID NO: 2) on wet macular degeneration (WMD), an experiment is conducted in rabbits with experimental WMD.
Rabbits are treated with IP-10 peptide (SEQ ID NO: 2), PF4, or a scrambled control peptide by injection into the vitreous humor. Rabbits are evaluated visually over time to evaluate the effect of each peptide. Injections are repeated as necessary.

| Molecule | Changes in pressure before and after treatment with the peptides [1] | Effect on WMD, evaluated visually over time [2] |
| --- | --- | --- |
| IP-10 peptide: 21 amino acid fragment of human IP-10, ESKAIKNLLKAVSKERSKRSP (listed as Homo sapiens) | prevent an increase in pressure | inhibit the development of WMD and/or lead to a reversion of WMD |
| B1 | prevent an increase in pressure | inhibit the development of WMD and/or lead to a reversion of WMD |
